How the values were obtained:
[1] = test system: smooth muscle cells; assay: smooth muscle proliferation stimulated by PDGF and IL-1; assay type: cell-based
Source text: CT1501R and PTX were separately added to the cells two hours prior to activation with PDGF and IL-1.

[2] = test system: adhesion of U937 cells to activated HUVEC; assay: adhesion of U937 cells to activated HUVEC (BCECF fluorescence); assay type: cell-based, human; settings: 250 μM
Description: HUVEC were stimulated with either IL-1-α (100 ng/ml); TNF-α (10 ng/ml) or LPS ([…]) with or without the addition of 250 μM CT1501R one hour prior to addition of the stimulus. Twelve hours later, the cells were assayed for adhesion of BCECF-labeled U937 cells. FIG. 21 is the relative BCECF fluorescence (+/-SD) for each of the treatment groups.
Murine peritoneal exudate cell macrophages (PEC) were isolated by perfusion of mouse peritoneum and plated into 96-well trays at 5×10^5 cells per well. Cells were stimulated with 5 μg/ml Salmonella abortus equi-derived endotoxin CLPS; Sigma Chemical Co., L-1887) or 50 ng/ml IL-1α (Genzyme; Cambridge, Mass.) with or without the addition of CT1501R added to the cultures one hour prior to addition of the stimulus. At various times thereafter, supernatants were removed and levels of either TNF-α or IL-1α were assayed using commercial 96-well microtiter immunoassay kits (Genzyme; TNF; Endogen, Boston, Mass.; IL-1α) according to manufacturer's specifications. […] After addition of […] Hanks Balanced Salt Solution (HBSS), the microtiter plate was then analyzed on a Millipore Cytofiuor fluorescent plate reader (excitation 488 nm; emission 525 nm). […]

[3] = test system: IL-6; assay: mouse plasma IL-6 ELISA after endotoxin; assay type: in vivo, mice
Description: FIG. 8 illustrates data from mouse plasma IL-6 ELISA measurements. Data are compiled from the average of duplicate ELISA measurements from a single experiment with each point representing pooled plasma from three mice.
For ELISA measurements of cytokine levels in plasma, blood was collected by retro-orbital or cardiac puncture of anesthetized mice, immediately centrifuged and the EDTA plasma stored at -70° C. Particulate free plasma was thawed on ice and cytokine levels determined utilizing commercial ELISA assays with normal mouse plasma used to generate standard curves. Murine tumor necrosis factor-α and interleukin-1α kits were purchased from Genzyme (Cambridge, Mass.) and Endogen (Boston, Mass.), respectively. Each data point was an average of two ELISA measurements made from EDTA serum pooled from three mice. The data summarized in Table 3 were compiled from two independent experiments; data from Table 4 and 5 were from single experiments of three mice per data point.
In particular, peak levels observed at 6, 12 and 18 hours post endotoxin were decreased 1.2, 4.3 and 3.2-fold, respectively. Finally, IL-6 measurements were made in a similar manner (Table 6, FIG. 8).

C[C@@H](O)CCCCn1c(=O)c2c(ncn2C)n(C)c1=O [CT1501R, (R)-1-(5-hydroxyhexyl)-3,7-dimethylxanthine]
activity compared with PTX, smooth muscle cell proliferation [1]: more active than PTX
inhibition of smooth muscle cell proliferation ([1]; drug added two hours prior to activation): inhibited smooth muscle cell proliferation at the higher doses tested
relative adhesiveness of activated HUVEC for U937 cells ([2]; 1 hour prior to TNF-α, IL-1α or LPS): marked suppression in the relative adhesiveness
background attachment of U937 cells to HUVEC ([2]; non-activated HUVEC): no significant effect on background attachment
decrease of peak plasma IL-6 vs endotoxin only ([3]; 3 hours post endotoxin): 1.7 fold
decrease of peak plasma IL-6 vs endotoxin only ([3]; 6 hours post endotoxin): 2.0 fold
decrease of peak plasma IL-6 vs endotoxin only ([3]; 12 hours post endotoxin): 4.1 fold

— US5621102A, “Process for preparing enantiomerically pure xanthine derivatives” (Cell Therapeutics, Inc., priority 1995, dated 1997)
